We go through one compound from patent publication US12446582B2 (priority 2018, dated 2025).

The experiment concerns Fusarium pseudograminearum.
Where [1] appears, read: average of 5 trials, compared to untreated T1.
Where [2] appears, read: average of 5 trials, compared to untreated T1, listed as T2.
The mark [3] stands for this setting: average of 5 trials, untreated T1 = 100.00.

Entries after “also recorded” stand apart in the source; their conditions may differ. Like-named read-outs stand apart in the source and are kept apart here.

Procedure: 5 wheat trial locations were selected across the main wheat growing areas of Australia. All five sites have a history of crown rot and high stubble load coming out of susceptible rotation crop. Soil samples were taken to confirm the pathogen pressure. The seeds were treated with a Rotostat Seed Treater with 800 ml slurry volume per 100 kg of seeds. Planting for the trials took place between 2 June and 14 June using a 6 to 8 row planter. The number of plants was counted 35-65 days after sowing on 2×5 m row. The number of wheat plants with white heads per plot was assessed at full ripe and recorded as % compared to the untreated plants which were taken as reference. Yield grain data was taken at the end of the season.

With `O=C(NC1CCC1c1ccc(Cl)cc1Cl)c1cccnc1C(F)(F)F` (stereo not drawn) [Compound 1], under setting [1], the “Final emergence counts % increase compared to T1” value amounted to 7.52%, the “Plot yields % increase compared to T1” value is reported as 26% and the “White heads % reduction compared to T1” value is 34%. Besides, under setting [2], the “Plot yields % increase compared to T1” value was 26.32% and the “White heads % reduction compared to T1” value is 34.20%. For the same compound, the “White heads Average” value (average of 5 trials, % compared to untreated T1 = 100.00) is 66.80%. Moreover, under setting [3], the “Final emergence counts Average” value is 107.52 and the “Plot yields Average” value stood at 126.32. Besides, the “White heads AR0T020” value (trial AR0T020, Merredin, WA, variety Cobra, seed treatment, % compared to untreated T1 = 100.00, at full ripe) turned out to be 32.86%. Also, the “Plot yields AR0T020” value (trial AR0T020, Merredin, WA, variety Cobra, seed treatment, full plot harvest, untreated T1 = 100.00) was 127.83. In addition, the “Final emergence counts AR0T020” value (trial AR0T020, Merredin, WA, variety Cobra, seed treatment, untreated T1 = 100.00) stood at 101.87. Also, the “White heads AR0T021” value (trial AR0T021, Tammin, WA, variety Cobra, seed treatment, % compared to untreated T1 = 100.00, at full ripe) turned out to be 28.45%. Moreover, for the setting “trial AR0T021, Tammin, WA, variety Cobra, seed treatment, full plot harvest, untreated T1 = 100.00”, the “Plot yields AR0T021” value amounted to 107.62. The “Final emergence counts AR0T021” value (trial AR0T021, Tammin, WA, variety Cobra, seed treatment, untreated T1 = 100.00) came out at 118.36. Further, the “White heads DL0T013” value (trial DL0T013, Bunnaloo, NSW, variety Aurora (Durum), seed treatment, % compared to untreated T1 = 100.00, at full ripe) is listed as 92.59%. The “Plot yields DL0T013” value (trial DL0T013, Bunnaloo, NSW, variety Aurora (Durum), seed treatment, full plot harvest, untreated T1 = 100.00) is on record as 116.90. For the same compound, the “Final emergence counts DL0T013” value (trial DL0T013, Bunnaloo, NSW, variety Aurora (Durum), seed treatment, untreated T1 = 100.00) is on record as 100.80. For the same compound, the “White heads GS0T007” value (trial GS0T007, Redhill, SA, variety Saintly (Durum), seed treatment, % compared to untreated T1 = 100.00, at full ripe) turned out to be 74.52%. Moreover, the “Plot yields GS0T007” value (trial GS0T007, Redhill, SA, variety Saintly (Durum), seed treatment, full plot harvest, untreated T1 = 100.00) stood at 162.86. In addition, under “trial GS0T007, Redhill, SA, variety Saintly (Durum), seed treatment, untreated T1 = 100.00”, the “Final emergence counts GS0T007” value stood at 113.09. Moreover, the “White heads N10T669” value (trial N10T669, Bellata, NSW, variety Lillaroi (Durum), seed treatment, % compared to untreated T1 = 100.00, at full ripe) turned out to be 105.57%. In addition, for the setting “trial N10T669, Bellata, NSW, variety Lillaroi (Durum), seed treatment, full plot harvest, untreated T1 = 100.00”, the “Plot yields N10T669” value turned out to be 116.41. The “Final emergence counts N10T669” value (trial N10T669, Bellata, NSW, variety Lillaroi (Durum), seed treatment, untreated T1 = 100.00) came to 103.48. Besides, the “yield increase compared to other commercial treatments (in words)” value (wheat seed treatment, compared to commercial treatments T3-T5) was “more than double; also recorded: more than twice as much”.
